The assay has as its system L1210 leukemia ip in BDF1 mice, survival T/C. The assay is described as follows: NCI In Vivo Anticancer Drug Screen. Data for tumor model L1210 Leukemia (intraperitoneal) in B6D2F1 (BDF1) mice. The settings on record: endpoint: mean survival time, higher = longer survival. In outline: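 Tumor was transplanted into mice, which were then dosed with test compound or vehicle alone. Survival was recorded for each group, and the treated figure was expressed relative to the control figure.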

Setting [1] is: dose: 100.0 mg/kg/injection, schedule: Q01DX001 (ip), vehicle: carboxymethylcellulose (CMC).
The mark [2] stands for this setting: dose: 200.0 mg/kg/injection, schedule: Q01DX001 (ip), vehicle: carboxymethylcellulose (CMC).
Where [3] appears, read: dose: 300.0 mg/kg/injection, schedule: Q01DX001 (ip), vehicle: carboxymethylcellulose (CMC).
[4] abbreviates: dose: 400.0 mg/kg/injection, schedule: Q01DX001 (ip), vehicle: carboxymethylcellulose (CMC).
The mark [5] stands for this setting: dose: 100.0 mg/kg/injection, schedule: Q01DX009 (ip), vehicle: Klucel (hydroxypropylcellulose) (HPC).
Setting [6] is: dose: 200.0 mg/kg/injection, schedule: Q01DX009 (ip), vehicle: Klucel (hydroxypropylcellulose) (HPC).
[7] abbreviates: dose: 100.0 mg/kg/injection, schedule: Q04DX003 (ip), vehicle: saline.
The mark [8] stands for this setting: dose: 200.0 mg/kg/injection, schedule: Q04DX003 (ip), vehicle: saline.
Where [9] appears, read: dose: 400.0 mg/kg/injection, schedule: Q04DX003 (ip), vehicle: saline.
Where [10] appears, read: dose: 100.0 mg/kg/injection, schedule: Q04DX003 (ip), vehicle: Klucel (hydroxypropylcellulose) (HPC).
[11] abbreviates: dose: 200.0 mg/kg/injection, schedule: Q04DX003 (ip), vehicle: Klucel (hydroxypropylcellulose) (HPC).
Setting [12] is: dose: 400.0 mg/kg/injection, schedule: Q01DX009 (ip), vehicle: Klucel (hydroxypropylcellulose) (HPC).
[13] abbreviates: dose: 400.0 mg/kg/injection, schedule: Q04DX003 (ip), vehicle: Klucel (hydroxypropylcellulose) (HPC).
Setting [14] is: dose: 75.0 mg/kg/injection, schedule: Q01DX001 (ip), vehicle: carboxymethylcellulose (CMC).
Where [15] appears, read: dose: 100.0 mg/kg/injection, schedule: Q01DX009 (ip), vehicle: saline with Tween-80.
The mark [16] stands for this setting: dose: 200.0 mg/kg/injection, schedule: Q01DX009 (ip), vehicle: saline with Tween-80.
Where [17] appears, read: dose: 100.0 mg/kg/injection, schedule: Q04DX003 (ip), vehicle: saline with Tween-80.
Setting [18] is: dose: 200.0 mg/kg/injection, schedule: Q04DX003 (ip), vehicle: saline with Tween-80.
[19] abbreviates: dose: 400.0 mg/kg/injection, schedule: Q01DX009 (ip), vehicle: saline with Tween-80.
Where [20] appears, read: dose: 400.0 mg/kg/injection, schedule: Q04DX003 (ip), vehicle: saline with Tween-80.
The mark [21] stands for this setting: dose: 100.0 mg/kg/injection, schedule: Q01DX001 (ip), vehicle: saline.
[22] abbreviates: dose: 200.0 mg/kg/injection, schedule: Q01DX001 (ip), vehicle: saline.
[23] abbreviates: dose: 400.0 mg/kg/injection, schedule: Q01DX001 (ip), vehicle: saline.
Setting [24] is: dose: 100.0 mg/kg/injection, schedule: Q01DX009 (ip), vehicle: saline.
Setting [25] is: dose: 200.0 mg/kg/injection, schedule: Q01DX009 (ip), vehicle: saline.
The mark [26] stands for this setting: dose: 400.0 mg/kg/injection, schedule: Q01DX009 (ip), vehicle: saline.
Where [27] appears, read: dose: 50.0 mg/kg/injection, schedule: Q01DX001 (ip), vehicle: carboxymethylcellulose (CMC).
Where [28] appears, read: dose: 50.0 mg/kg/injection, schedule: Q04DX003 (ip), vehicle: Klucel (hydroxypropylcellulose) (HPC).

Inconclusive results and toxic doses are left out.

Regarding `O=NN(C(=O)NC1CCCCC1)C1CCCCC1`, the T/C runs as follows: under setting [1], 106 % of control; under setting [2], 106 % of control; under setting [3], 106 % of control; under setting [4], 109 % of control; (dose: 500.0 mg/kg/injection, schedule: Q01DX001 (ip), vehicle: carboxymethylcellulose (CMC)) 112 % of control.
With `CC(CO)(CO)N1C(=O)c2cccc3cc([N+](=O)[O-])cc(c23)C1=O`, the T/C under setting [5] was 112 % of control and the T/C under setting [6] was 107 % of control.
Turning to `O=C(OCCBr)c1ccc(Cl)cc1`, the T/C is 101 % of control under setting [7], 97 % of control under setting [8] and 103 % of control under setting [9].
Take `Cc1ccc(C)c(NC(=O)N2CCCCC2C)c1` (centres undefined): the T/C reads like this: under setting [5], 101 % of control; under setting [10], 98 % of control; under setting [6], 101 % of control; under setting [11], 102 % of control; under setting [12], 97 % of control; under setting [13], 100 % of control.
For the compound `OCCCNc1nc2cc(Br)ccc2c2ccc(Br)cc12`, the T/C was 90 % of control under setting [10], 105 % of control under setting [11] and 97 % of control under setting [13].
For `COC(=O)COC1=NCC([N+](=O)[O-])CC1` (centres undefined), in that order: 100 % of control, 107 % of control and 102 % of control.
Regarding `CCC(C(=O)NC(=O)NOC)c1ccccc1` (centres undefined), the T/C reads like this: (dose: 100.0 mg/kg/injection, schedule: Q01DX Z (ip), vehicle: methylcellulose (MC)) 95 % of control; (dose: 200.0 mg/kg/injection, schedule: Q01DX Z (ip), vehicle: methylcellulose (MC)) 114 % of control; (dose: 400.0 mg/kg/injection, schedule: Q01DX Z (ip), vehicle: methylcellulose (MC)) 116 % of control.
For the compound `O=C(O)Cc1ccc2ccccc2c1Br`, the T/C is 97 % of control under setting [7], 95 % of control under setting [8] and 90 % of control under setting [9].
Consider `Nc1ccc2c(ccc3ccc4ccccc4c32)c1`, for which the T/C under setting [14] is 97 % of control.
For `CCCCOC(=O)C1=C(C(=O)OCCCC)CCCC1`, the T/C under setting [15] is 98 % of control and the T/C under setting [16] is 104 % of control.
For `c1ccc(-c2nn3c(-c4ccccc4)nnc3o2)cc1`, the T/C (dose: 66.0 mg/kg/injection, schedule: Q01DX009 (ip), vehicle: saline with Tween-80) is 90 % of control; the T/C under setting [17] is 92 % of control; the T/C (dose: 150.0 mg/kg/injection, schedule: Q01DX009 (ip), vehicle: saline with Tween-80) was 95 % of control; the T/C under setting [16] is 90 % of control; the T/C under setting [18] is 93 % of control; the T/C under setting [19] was 164 % of control. Also, the T/C under setting [20] was 92 % of control.
In the case of `CCCC(=O)c1c(O)cc(O)cc1O`, the T/C runs as follows: under setting [1], 98 % of control; under setting [2], 96 % of control; under setting [4], 93 % of control.
As to `O=C(O)CNc1cc(S(=O)(=O)O)cc2cc(S(=O)(=O)O)cc(O)c12`, the T/C under setting [21] was 103 % of control; the T/C under setting [7] was 103 % of control; the T/C under setting [22] is 107 % of control; the T/C under setting [8] is 90 % of control; the T/C under setting [23] was 96 % of control; the T/C under setting [9] was 92 % of control.
As to `C#CC1(OC(=O)Nc2cc3ccccc3o2)CCCCC1`, the T/C reads like this: under setting [17], 90 % of control; under setting [18], 95 % of control; under setting [20], 92 % of control.
On to `O=C(CCl)NCc1cnccn1`, for which the T/C is, setting by setting: (dose: 50.0 mg/kg/injection, schedule: Q01DX009 (ip), vehicle: saline) 95 % of control; under setting [24], 107 % of control; under setting [7], 98 % of control; under setting [8], 104 % of control.
As for `O=C(c1ccc(Br)cc1)C(O)O`, the T/C is 102 % of control under setting [24]; 121 % of control under setting [7]; 97 % of control under setting [25]; 101 % of control under setting [8]; 102 % of control under setting [26]; 106 % of control under setting [9].
Regarding `CC(C)C(COC(=O)c1ccc(N)cc1)NC1CCCCC1C` (centres undefined), the T/C by setting is: under setting [14], 97 % of control; (dose: 150.0 mg/kg/injection, schedule: Q01DX001 (ip), vehicle: carboxymethylcellulose (CMC)) 95 % of control; under setting [3], 89 % of control.
With `O=C(Nc1ccccc1F)OCCOc1ccccc1Cl`, the T/C under setting [5] is 115 % of control, the T/C under setting [6] is 112 % of control and the T/C under setting [12] was 124 % of control.
With `CCOC(=O)c1cccc2cccc(C(=O)OCC)c12`, the T/C reads like this: under setting [27], 97 % of control; under setting [1], 101 % of control; under setting [2], 101 % of control; under setting [4], 97 % of control.
As for `CCCCSCCC`, the T/C was 98 % of control under setting [15]; 117 % of control under setting [17]; 98 % of control under setting [16]; 96 % of control under setting [18]; 94 % of control under setting [19]; 94 % of control under setting [20].
For `O=C1CC2C(=O)C1C(C(=O)O)C2C(=O)O` (centres undefined), the T/C reads like this: (dose: 75.0 mg/kg/injection, schedule: Q01DX001 (ip), vehicle: saline) 112 % of control; (dose: 150.0 mg/kg/injection, schedule: Q01DX001 (ip), vehicle: saline) 102 % of control; (dose: 300.0 mg/kg/injection, schedule: Q01DX001 (ip), vehicle: saline) 95 % of control.
For the compound `Cc1cc(=O)n(CC(=O)O)c2ccccc12`, the T/C reads like this: under setting [28], 88 % of control; under setting [21], 100 % of control; under setting [10], 90 % of control; under setting [22], 100 % of control; under setting [23], 98 % of control.
For `Cc1ccc(NC(=O)Oc2cc(C)ccc2C(C)C)cc1`, the T/C runs as follows: under setting [5], 113 % of control; under setting [6], 94 % of control; under setting [12], 97 % of control.
Turning to `O=S(=O)(O)CBr`, the T/C runs as follows: under setting [21], 107 % of control; under setting [24], 91 % of control; under setting [7], 100 % of control; under setting [22], 106 % of control; under setting [25], 96 % of control; under setting [8], 100 % of control. The T/C under setting [23] was 109 % of control, the T/C under setting [26] is 98 % of control and the T/C under setting [9] is 106 % of control.
Take `CCC1C(=O)CC(C(=O)O)C1C(=O)O` (centres undefined): the T/C is 100 % of control (dose: 100.0 mg/kg/injection, schedule: Q04DX002 (ip), vehicle: saline with Tween-80) and 96 % of control (dose: 200.0 mg/kg/injection, schedule: Q04DX002 (ip), vehicle: saline with Tween-80).
`CC(=O)[O][Ge]([CH2]CC(C)C)([CH2]CC(C)C)[CH2]CC(C)C`: the T/C is, setting by setting: under setting [27], 100 % of control; (dose: 50.0 mg/kg/injection, schedule: Q01DX001 (ip), vehicle: saline) 100 % of control; under setting [1], 100 % of control; under setting [21], 102 % of control; under setting [2], 100 % of control; under setting [22], 106 % of control. The T/C is 96 % of control under setting [4] and 118 % of control under setting [23].
As for `CC(C)(C#N)C(C)(C)c1cnc2ccccc2c1`, the T/C reads like this: under setting [10], 96 % of control; under setting [11], 101 % of control.
`COc1cc2c(cc1OC)C(=O)C(C(=O)c1ccccc1)C2` (centres undefined): the T/C is 89 % of control under setting [10], 109 % of control under setting [11] and 94 % of control under setting [13].
For the compound `CCOC(=O)C1(C(=O)OCC)CCC2Nc3cc4c(cc3C(=O)N21)OCO4` (centres undefined), the T/C is 99 % of control (dose: 12.5 mg/kg/injection, schedule: Q04DX003 (ip), vehicle: Klucel (hydroxypropylcellulose) (HPC)); 100 % of control (dose: 25.0 mg/kg/injection, schedule: Q04DX003 (ip), vehicle: Klucel (hydroxypropylcellulose) (HPC)); 96 % of control under setting [28].

Source of the values: PubChem BioAssay AID248 (DTP/NCI, 2004).
